# Test results taken from the supplement of paper PMC10307832.
# How the values were obtained:
# Experiment in all cases: relative viability (nuclei count vs DMSO), 5 days (fraction); higher = more cells survive
# Shikonin + Foretinib = compound: CC(C)=CC[C@@H](O)C1=CC(=O)c2c(O)ccc(O)c2C1=O [Shikonin] + COc1cc2c(Oc3ccc(NC(=O)C4(C(=O)Nc5ccc(F)cc5)CC4)cc3F)ccnc2cc1OCCCN1CCOCC1 [Foretinib] (partner 0.25 µM)
# In short: (§1)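 Lung cancer cell lines, seeded in 1536-well plates, were treated the following day by pin tool with a single drug or with five library-drug doses (not always all listed) in √10 steps on top of a fixed anchor-drug dose. Cells were fixed and nuclei stained in one step after 5 days, and nuclei were counted. Relative viability is the nuclei count for treated wells divided by that for vehicle wells, reported as medians of duplicate plates.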
# Shikonin + Vorinostat = compound: CC(C)=CC[C@@H](O)C1=CC(=O)c2c(O)ccc(O)c2C1=O [Shikonin] + O=C(CCCCCCC(=O)Nc1ccccc1)NO [Vorinostat] (partner 1 µM)
# In short: as §1
# [1] = compound: CC(C)N(CCCNC(=O)Nc1ccc(C(C)(C)C)cc1)C[C@H]1O[C@@H](n2ccc3c(N)ncnc32)[C@H](O)[C@@H]1O + CC(=O)Nc1cccc(-n2c(=O)n(C3CC3)c(=O)c3c(Nc4ccc(I)cc4F)n(C)c(=O)c(C)c32)c1 [Trametinib] (partner 0.02 µM)
# In short: as §1
# [2] = compound: CC(C)N(CCCNC(=O)Nc1ccc(C(C)(C)C)cc1)C[C@H]1O[C@@H](n2ccc3c(N)ncnc32)[C@H](O)[C@@H]1O + CC1(C)CCC(c2ccc(Cl)cc2)=C(CN2CCN(c3ccc(C(=O)NS(=O)(=O)c4ccc(N[C@H](CCN5CCOCC5)CSc5ccccc5)c(S(=O)(=O)C(F)(F)F)c4)cc3)CC2)C1 [Navitoclax] (partner 0.5 µM)
# In short: as §1
Cell Line,relative viability (Shikonin + Foretinib; first compound 0.01 µM),relative viability (Shikonin + Foretinib; first compound 0.1 µM),relative viability (Shikonin + Foretinib; first compound 0.3162 µM),relative viability (Shikonin + Foretinib; first compound 1 µM),relative viability (Shikonin + Vorinostat; first compound 0.01 µM),relative viability (Shikonin + Vorinostat; first compound 0.1 µM),relative viability (Shikonin + Vorinostat; first compound 0.3162 µM),relative viability (Shikonin + Vorinostat; first compound 1 µM),relative viability ([1]; first compound 0.08 µM),relative viability ([1]; first compound 0.253 µM),relative viability ([1]; first compound 0.8 µM),relative viability ([1]; first compound 2.53 µM),relative viability ([1]; first compound 8 µM),relative viability ([2]; first compound 0.08 µM),relative viability ([2]; first compound 0.253 µM),relative viability ([2]; first compound 0.8 µM),relative viability ([2]; first compound 2.53 µM),relative viability ([2]; first compound 8 µM)
NCI-H1944,0.94,0.954,0.989,0.94,0.521,0.521,0.673,0.55,0.362,0.39,0.372,0.439,0.448,0.982,0.983,0.988,1.05,1.02
NCI-H1975,1,0.921,0.947,0.973,0.687,0.785,0.801,0.64,0.347,0.29,0.167,0.308,0.32,0.978,1.18,1.17,0.923,0.835
NCI-H1993,0.782,0.696,0.767,0.715,0.72,0.773,1.02,0.806,0.609,–,0.569,0.471,0.486,0.944,1.03,0.872,0.807,0.959
NCI-H2009,1.24,1.37,1.31,1.06,0.918,0.737,0.789,0.649,0.272,0.244,0.301,0.255,0.296,1.19,1.17,1.19,1.17,1.13
NCI-H2023,0.921,0.863,0.887,0.931,0.645,0.772,0.703,0.736,0.536,0.579,0.559,0.495,0.459,0.989,1.05,1.01,1.05,0.988
NCI-H2085,0.851,1.06,0.996,0.753,0.78,0.917,0.775,0.824,0.509,0.455,0.685,0.572,0.47,1.11,1.11,1.18,1.33,1.15
NCI-H2087,1.04,1.07,1.19,1.1,0.624,0.742,0.696,0.689,0.165,0.191,0.225,0.232,0.22,1.04,1.11,0.896,1.14,0.989
NCI-H2126,1.06,1.2,1.18,1.43,0.806,0.757,0.841,0.819,0.551,0.572,0.555,0.577,0.58,0.887,0.825,0.851,0.848,0.776
NCI-H2170,1.03,0.88,1.06,1.02,0.856,0.89,0.999,0.816,0.965,0.912,0.862,0.866,0.914,0.605,0.637,0.594,0.567,0.544
NCI-H2228,0.824,0.619,0.895,0.806,0.807,0.507,0.53,0.785,0.631,0.375,0.388,0.52,0.526,1.1,–,0.916,1.32,0.711
NCI-H2347,1.15,1.27,0.835,0.953,0.567,0.529,0.6,0.577,0.248,0.281,0.251,0.284,0.282,0.86,0.684,0.608,0.771,0.71
NCI-H2405,1.06,1.08,1.15,1.03,1.11,1.12,1.03,1.11,0.669,0.591,0.598,0.765,0.644,0.957,–,0.991,1,1.05
NCI-H3122,0.959,0.997,0.947,1.01,1.07,0.986,1.29,0.944,0.242,0.299,0.202,0.242,0.247,1.03,0.997,1.04,0.985,0.931
PC-3 [JPC-3],1.06,1.16,1.1,1.1,0.845,0.792,0.781,1.3,0.664,0.722,–,0.715,0.683,0.784,0.752,0.807,0.797,0.7
PC-14,0.914,1,1.15,1.09,0.807,0.833,0.77,0.484,0.648,0.701,0.842,0.718,0.558,1,0.996,0.946,1.03,0.847
RERF-LC-KJ,0.904,0.961,0.903,0.908,0.709,0.836,0.718,0.757,0.902,0.938,0.815,0.911,0.783,0.717,1.06,1.03,0.931,0.822
SK-LU-1,0.869,0.907,0.863,0.788,0.844,0.878,0.853,0.704,0.567,0.469,0.513,0.501,0.428,0.688,0.762,0.86,1.06,0.557
